PMC10180054, “Design, Synthesis and Biological Evaluation of Novel Pleuromutilin Derivatives Containing 6-Chloro-1-R-1H-pyrazolo[3,4-d]pyrimidine-4-amino Side Chain” (Molecules, 2023)
Values after ≈ are worked out from the molar mass of the structure shown.

Columns and labels:
[1] = system: MRSA ATCC 43300; test: MIC/MBC by broth dilution (CLSI); assay type: cell-based, Staphylococcus aureus; details: Staphylococcus aureus; for MIC: MRSA ATCC 43300, broth dilution, 24 h, 37 °C, read-out: MIC; for MBC: MRSA ATCC 43300, 99.9% of the bacteria killed
Procedure: (§1) The in vitro antimicrobial activity of the pleuromutilin derivatives was assessed against MRSA ATCC 43300, S. aureus ATCC 29213, S. aureus 144 and S. aureus AD3 according to the Clinical and Laboratory Standards Institute (CLSI). Tiamulin was used as a positive control drug. The results were summarized as the minimum inhibitory concentration (MIC) and the minimum bactericidal concentration (MBC) in Table 1 and Table 2. In addition, MIC results for the pleuromutilin derivatives against four Gram-negative bacteria are supplied in Tables S2 and S3.
(§2) The MIC and MBC values of the synthesized novel pleuromutilin derivatives against MRSA ATCC 43300, S. aureus ATCC 29213, S. aureus 144 and S. aureus AD3 were measured. Tiamulin was used as a positive control drug. The MIC and MBC values were manipulated by broth dilution according to the Clinical and Laboratory Standards (CLSI). Each compound to be measured was dissolved in a solution of 95% deionized water, 2.5% dimethyl sulfoxide (DMSO) and 2.5% Tween-80 with a concentration of 1280 µg/mL. Subsequently, serial twofold dilutions were made in a concentration range from 64 µg/mL to 0.0625 µg/mL. The working bacterial suspension was inoculated into each well, which provided the final inoculum density of 5 × 10^5 CFU/mL. Three parallel experiments were performed for each compound.
(§3) Overall, 25 µL of the bacterial solution from the wells with no obvious bacterial growth was inoculated on MH agar plates. Then, the inoculated MH agar plates were further cultured at 37 °C for 24 h.

[2] = system: S. aureus 144; test: MIC/MBC by broth dilution (CLSI); assay type: cell-based; details: Staphylococcus aureus; S. aureus 144 (clinical strain)
Procedure: as §1, §2, §3

[3] = system: S. aureus ATCC 29213; test: MIC/MBC by broth dilution (CLSI); assay type: cell-based; details: Staphylococcus aureus; for MIC: S. aureus ATCC 29213, broth dilution, 24 h, 37 °C; for MBC: S. aureus ATCC 29213
Procedure: as §1, §2, §3

[4] = system: S. aureus AD3; test: MIC/MBC by broth dilution (CLSI); assay type: cell-based; details: Staphylococcus aureus, S. aureus AD3 (clinical strain)
Procedure: as §1, §2, §3

SMILES | MIC [1] [µg/mL] | melting point [°C] | MIC [2] [µg/mL] | MIC ([3]; ATCC29213) [µg/mL] | MIC [4] [µg/mL] | MBC [1] [µg/mL] | MBC [2] [µg/mL] | MBC ([3]; ATCC29213, 24 h) [µg/mL] | MBC ([4]; 24 h) [µg/mL] | MIC ([4]; 24 h) [µg/mL] | MBC ([3]; ATCC29213) [µg/mL] | MBC [4] [µg/mL]
C=C[C@]1(C)C[C@@H](OC(=O)CSc2ccc(Nc3nc(Cl)nc4c3cnn4-c3ccc(F)cc3F)cc2)[C@]2(C)[C@H](C)CC[C@]3(CCC(=O)[C@H]32)[C@@H](C)[C@@H]1O [Compound 20c, 22-[4-(6-Chloro-1-(2,4-difluorophenyl)-1H-pyrazolo[3,4-d]pyrimidine-4-yl)amino-Phenylsulfanyl]-22-deoxypleuromutilin] | > 64 | 132 to 134 | > 64 | > 64 | > 64 |  |  |  |  |  |  | 
C=C[C@]1(C)C[C@@H](OC(=O)CNc2nc(Cl)nc3c2cnn3-c2cc(F)ccc2F)[C@]2(C)[C@H](C)CC[C@]3(CCC(=O)[C@H]32)[C@@H](C)[C@@H]1O [Compound 21b, 22-[(6-Chloro-1-(2,5-difluorophenyl)-1H-pyrazolo[3,4-d]pyrimidine-4-yl)amino]-22-deoxypleuromutilin] | > 64 | 121 to 125 | > 64 | > 64 | > 64 |  |  |  |  |  |  | 
C=C[C@]1(C)C[C@@H](OC(=O)CSc2ccc(Nc3nc(Cl)nc4c3cnn4-c3cc(F)ccc3F)cc2)[C@]2(C)[C@H](C)CC[C@]3(CCC(=O)[C@H]32)[C@@H](C)[C@@H]1O [Compound 21c, 22-[4-(6-Chloro-1-(2,5-difluorophenyl)-1H-pyrazolo[3,4-d]pyrimidine-4-yl)amino-Phenylsulfanyl]-22-deoxypleuromutilin] | > 64 | 115 to 118 | > 64 | > 64 | > 64 |  |  |  |  |  |  | 
C=C[C@]1(C)C[C@@H](OC(=O)CNc2nc(Cl)nc3c2cnn3-c2ccc(F)c(F)c2)[C@]2(C)[C@H](C)CC[C@]3(CCC(=O)[C@H]32)[C@@H](C)[C@@H]1O [Compound 22b, 22-[(6-Chloro-1-(3,4-difluorophenyl)-1H-pyrazolo[3,4-d]pyrimidine-4-yl)amino]-22-deoxypleuromutilin] | 16 (≈ 24.9 µM) | 130 to 132 | 16 (≈ 24.9 µM) | 8 (≈ 12.5 µM) |  | > 64 | > 64 | > 64 | > 64 | 8 (≈ 12.5 µM) |  | 
C=C[C@]1(C)C[C@@H](OC(=O)CSc2ccc(Nc3nc(Cl)nc4c3cnn4-c3ccc(OC(F)(F)F)cc3)cc2)[C@]2(C)[C@H](C)CC[C@]3(CCC(=O)[C@H]32)[C@@H](C)[C@@H]1O [Compound 23c, 22-[4-(6-Chloro-1-(4-(yrifluoromethoxy)Phenyl)-1H-pyrazolo[3,4-d]pyrimidine-4-yl)amino-Phenylsulfanyl]-22-deoxypleuromutilin] | 0.5 (≈ 0.626 µM) | 144 to 147 | 1 (≈ 1.25 µM) | 0.5 (≈ 0.626 µM) | 0.25 (≈ 0.313 µM) | 1 (≈ 1.25 µM) | 2 (≈ 2.51 µM) |  |  |  | 1 (≈ 1.25 µM) | 1 (≈ 1.25 µM)
C=C[C@]1(C)C[C@@H](OC(=O)CNc2nc(Cl)nc3c2cnn3-c2cccc(Cl)c2)[C@]2(C)[C@H](C)CC[C@]3(CCC(=O)[C@H]32)[C@@H](C)[C@@H]1O [Compound 24b, 22-[(6-Chloro-1-(3-chlorophenyl)-1H-pyrazolo[3,4-d]pyrimidine-4-yl)amino]-22-deoxypleuromutilin] | > 64 | 117 to 119 | > 64 | > 64 | > 64 |  |  |  |  |  |  | 
C=C[C@]1(C)C[C@@H](OC(=O)CSc2ccc(Nc3nc(Cl)nc4c3cnn4-c3cccc(Cl)c3)cc2)[C@]2(C)[C@H](C)CC[C@]3(CCC(=O)[C@H]32)[C@@H](C)[C@@H]1O [Compound 24c, 22-[4-(6-Chloro-1-(3-chlorophenyl)-1H-pyrazolo[3,4-d]pyrimidine-4-yl)amino-Phenylsulfanyl]-22-deoxypleuromutilin] | > 64 | 121 to 124 | > 64 | > 64 | > 64 |  |  |  |  |  |  | 
